2 molecules from ChEMBL document CHEMBL1157088, “Gukulenins A and B, cytotoxic tetraterpenoids from the marine sponge Phorbas gukulensis” (J Nat Prod, 2010) can be followed below.

Assay type in all cases: functional, cell-based
The test system of one test is FaDu. Put plainly: Cytotoxicity against human FADU cells after 24 hrs by MTT assay. (In general: Tetrazolium dyes change colour on reduction, which living cells bring about.)
In another test the test system is HCT-116. Kind of test: Cytotoxicity against human HCT116 cells after 24 hrs by MTT assay. The note with it: HCT-116, 24 h.
The test system of the next test is SN12C. Kind of test: Cytotoxicity against human SN12C cells after 24 hrs by MTT assay.
For a further test, the system named is MKN-45. Kind of test: Cytotoxicity against human MKN45 cells after 24 hrs by MTT assay. The conditions noted are these: MKN-45, 24 h.

Broadly, the IC50 is the concentration needed to halve the response being measured. A lower IC50 goes with greater potency.

On to `CC(=O)O[C@@H](C=O)[C@]1(C)CC[C@H](C(C)C)[C@@H]1c1cc([C@]2(O)Cc3cc(O)c(=O)c(C)c4c3[C@@H](O2)[C@H](O)[C@]2(C)CC[C@H](C(C)C)[C@H]42)cc(O)c(=O)c1C` [GUKULENIN A], for which the IC50 turned out to be 57 nM in the test with FaDu, 62 nM in the test with HCT-116, 92 nM in the test with SN12C and 130 nM with MKN-45.

As to `CC(=O)O[C@@H](CO)[C@]1(C)CC[C@H](C(C)C)[C@@H]1c1cc([C@]2(O)Cc3cc(O)c(=O)c(C)c4c3[C@@H](O2)[C@H](O)[C@]2(C)CC[C@H](C(C)C)[C@H]42)cc(O)c(=O)c1C` [GUKULENIN B], the IC50 in the test with FaDu stood at 630 nM; in the test with HCT-116, 550 nM; in the test with SN12C, 610 nM; with MKN-45, 720 nM.
